This experiment has as its target T1, Nuclear receptor ROR-gamma (Homo sapiens, UniProt P51449).
T1 sequence (P51449 whole entry): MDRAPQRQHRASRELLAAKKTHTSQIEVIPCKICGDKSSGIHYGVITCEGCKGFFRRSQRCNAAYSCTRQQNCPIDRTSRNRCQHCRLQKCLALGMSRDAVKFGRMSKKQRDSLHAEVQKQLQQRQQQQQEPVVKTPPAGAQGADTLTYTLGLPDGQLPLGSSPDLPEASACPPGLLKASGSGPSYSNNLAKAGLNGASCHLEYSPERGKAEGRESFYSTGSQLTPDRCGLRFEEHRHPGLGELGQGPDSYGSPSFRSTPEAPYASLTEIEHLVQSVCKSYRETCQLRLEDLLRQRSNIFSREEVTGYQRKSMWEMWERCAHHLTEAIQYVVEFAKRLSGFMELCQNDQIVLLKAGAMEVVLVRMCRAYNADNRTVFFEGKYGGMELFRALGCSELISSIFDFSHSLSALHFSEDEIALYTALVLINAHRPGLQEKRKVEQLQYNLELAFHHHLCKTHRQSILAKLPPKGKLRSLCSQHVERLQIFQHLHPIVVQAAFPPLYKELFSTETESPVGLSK
As to the kind of experiment: RORgammat 5xRORE Assay in Jurkat Cells (Assay 2) : Compounds of the present invention were tested for RORγ inverse agonist activity in a cell-based, transcriptional activity assay. […] (Promega, Cat. # N1021) using KpnI and HindIII restriction sites. […] Luciferase activity in the conditioned supernatants was determined with NanoGlo® assay reagents (Promega, Cat. # N1130).

For orientation: IC50 means the concentration needed to halve the response being measured. A low value points to higher potency. With `CCS(=O)(=O)c1ccc(CNC(=O)c2cnc3c(c2)C(=O)N(Cc2ccc(Cl)cc2)[C@H]3C(C)C)cc1`, the 50% inhibitory concentration (IC50) is 100 to 1000 nM.

(Values after ChEMBL document CHEMBL5728053, “Dihydropyrrolopyridine inhibitors of ROR-gamma” (2020).)
